Literature values in patent US12453819B2, “Injector” (Antares Pharma, Inc., priority 2018, dated 2025).
Counter-ions that a name gives are not always drawn.

Structure (SMILES) | solubility in water: parts of water dissolving one part (as described in USP (soluble)) | solubility in alcohol (descriptive term) | solubility in chloroform (descriptive term) | solubility in ether (descriptive term) | solubility in water (descriptive term) | log P
C=CCN1CC[C@]23c4c5ccc(O)c4O[C@H]2C(=O)CC[C@@]3(O)[C@H]1C5 [Naloxone hydrochloride] | 10-30 parts of water | slightly soluble | practically insoluble | practically insoluble | soluble | 
C=CCN1CC[C@]23c4c5ccc(O)c4O[C@H]2C(=O)CC[C@@]3(O)[C@H]1C5 [Naloxone, 17-allyl-4,5α-epoxy, 3-14-dihydroxymorphine-6-one] |  |  |  |  |  | 1.92
